In the assay the test system is CEM cells HIV-1 protection, formazan growth assay. Description: NCI AIDS Antiviral Assay. The following applies: for pIC50: measured here: growth of uninfected CEM cells. An outline of the steps: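 Human CEM cells, uninfected and HIV-1-infected, received five drug concentrations, and growth was read by soluble formazan assay. Compounds giving at least 50% protection were retested; reproducible 100% protection defined confirmed active.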

Among the data in PubChem BioAssay AID179 (DTP/NCI, 2004) are EC50, IC50 and outcome values, retold here.

Molecules are shown by their SMILES. pEC50, pIC50: −log10 of the molar value. The source made the active and inactive calls.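 Rule for the calls: active = compounds giving half or more protection of infected cells from virus-caused growth loss, again on retest; inactive = the rest.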 Bounds are passed on as bounds.

In general, pEC50 refers to −log10 of the EC50, conventionally taken in molar units. Usually pIC50 stands for −log10 of the IC50, conventionally taken in molar units. As to `COC1(OC)C2C=CC1C([C@](C)(N)CO)C2` (stereo partly drawn), the pEC50 was < 2.96 and the pIC50 was < 2.96. `COc1ccc(CCn2cncn2)cc1`: the pEC50 was < 2.98 and the pIC50 is < 2.98. As to `O=S1(=O)CCCc2c1ccc1ccccc21`, the pEC50 was < 3.70 and the negative-log IC50 (pIC50) is < 3.70. With `S=C1NCCS1`, the pEC50 was < 2.68 and the pIC50 was 2.93. The matching figures for `COC(=O)c1ccc(C)cc1CC1Cc2cccc(C)c2C1=O` (stereo not drawn): < 3.70 and 5.27. Consider `CCSC1(SCC)CC(Cc2ccc(OC)cc2)N(C=NC(C)(C)C)C1` (stereo not drawn), for which the pEC50 is < 3.62 and the negative-log IC50 (pIC50) was 4.24. The corresponding values for `OCc1ccc2c(c1)CC1(C2)Cc2cc3c(cc2C1O)CCC3` (stereo not drawn) are < 3.70 and 5.74.

`COc1cc2cc(C(=O)N3CC(CCl)c4ccc([N+](C)(C)Cc5ccc([N+](=O)[O-])cc5)cc43)[nH]c2c(OC)c1OC` (stereo not drawn): the pEC50 is < 3.70 and the negative logarithm of the IC50 (pIC50) was 5.11. The corresponding values for `CC(C)(C)[Si](C)(C)OC[C@H]1O[C@@H](n2ccc(=O)[nH]c2=O)C[C@]12CCN(O)CO2` are < 3.70 and 3.98. In the case of `O=C(/C=C/c1ccccc1O)c1ccc([N+](=O)[O-])cc1`, the pEC50 was < 4.02 and the negative-log IC50 (pIC50) was 4.27. In the case of `COC(=O)c1c(CC(Cc2ccc3c(c2)CCCC3)C(=O)OC)ccc2c1CCCC2` (stereo not drawn), the pEC50 was < 3.70 and the pIC50 is 4.02.

With `Cc1cccc2c1Sc1ccccc1C2NC(=O)CN(C)C` (stereo not drawn), the pEC50 was < 3.38 and the negative logarithm of the IC50 (pIC50) was 3.99. As for `CCOC(=O)c1sc2c(C(=O)OCC)c3cc(C)ccn3c2c1N`, the result was inactive. Same read-out and setting: with `COC(=O)CCC12CCC(=O)C1[C@@H](C(=O)OC)C[C@H]2C(=O)OC` (stereo partly drawn) the entry was “inactive”; with `COc1cc2cc(c1Cl)N(C)C(=O)C[C@H](OC(=O)[C@H](C)N(C)C(C)=O)[C@]1(C)O[C@H]1[C@H](C)[C@@H]1C[C@@](O)(NC(=O)O1)[C@H](OC)C=C/C=C(\C)C2`, “inactive”.

Consider `Cc1cc(C)c2c(c1)C/C(=C\c1cccc(C)c1C(=O)O)C2=O`, for which the pEC50 is < 3.70 and the pIC50 is 3.89.

Consider `O=C(/C=C/c1ccc(O)c(F)c1)CC(=O)/C=C/c1ccc(O)c(F)c1`, for which the pEC50 was < 3.70 and the negative-log IC50 (pIC50) was 4.90. The matching figures for `O=C(NCCCCCCCN1CCCCCCC1)C(C1CCCCC1)C1CCCCC1`: < 3.70 and 4.97. The matching figures for `CCN(CC)CCN1CC(=O)N2Cc3ccccc3CN2C(=O)C1`: < 3.70 and < 3.70. Turning to `Fc1ccc(-c2sc(-c3cccs3)cc2Cc2cccs2)cc1`, the outcome was inactive.

Turning to `O=C(O)c1cc2ccccc2[nH]c1=O`, the result was inactive. `O=C1CCCN(c2ccccc2)N1`: the pEC50 is < 2.85 and the pIC50 is < 2.85. In the case of `CC1=C(C(=O)Nc2ccc(Cl)c(Cl)c2)C(c2ccc([N+](=O)[O-])cc2)C(C(=O)Nc2ccc(Cl)c(Cl)c2)=C(C)N1`, the pEC50 is < 5.06 and the pIC50 is 5.25. Take `C[Si](C)(C)/C(Br)=C\CCN1C(=O)CCC1=O`: the result was inactive. In the case of `CC(=O)OC1C(COC(N)=O)OC(n2c(-c3ccc(C)cc3)cc(-c3ccccc3)c(C#N)c2=O)C(OC(C)=O)C1OC(C)=O` (stereo not drawn), the pEC50 is < 4.94 and the pIC50 was < 4.94. Regarding `O=P(O)(O)CCCNO`, the pEC50 was < 3.70 and the pIC50 was < 3.70. `COc1ccc(C2Oc3c(cccc3OC)C=C2[N+](=O)[O-])cc1` (stereo not drawn): the pEC50 is < 3.70 and the pIC50 was 5.82. The matching figures for `CC12C=CC(C)(C3C(=O)C4C(C(=O)C31)C1(C)C=CC4(C)S1=O)S2=O` (stereo not drawn): 4.66 and 4.22. As to `N[C@H]1c2c(Cl)cccc2C(=O)[C@H]1O`, the pEC50 was < 3.70 and the pIC50 is 4.96.

For the compound `N#C/C=C\c1ccc(F)cc1`, the pEC50 is < 3.61 and the pIC50 is < 3.61.

Consider `CCOC(=O)C(=O)Nc1ccc(Cl)cc1C`, for which the pEC50 is < 3.41 and the negative-log IC50 (pIC50) was 3.48. The matching figures for `CCOC(=O)C1Cc2c([nH]c(=O)[nH]c2=O)OC1c1ccc([N+](=O)[O-])cc1` (stereo not drawn): < 3.44 and < 3.44.

As for `Cc1nc2n(c1C(N)=O)CCS2`, the pEC50 was < 3.70 and the pIC50 is < 3.70. As for `O=C(CC1=NC2NN(c3ccccc3)C(=O)C2=C1CC(=O)c1ccccc1)c1ccccc1` (stereo not drawn), the pEC50 is < 3.24 and the pIC50 is 3.76.

With `Fc1ccccc1-c1nn2c(C34CC5CC(CC(C5)C3)C4)nnc2s1`, the pEC50 is < 3.70 and the pIC50 is < 3.70.

Turning to `Cn1cc(B(O)O)c(=O)[nH]c1=O`, the pEC50 is < 3.70 and the pIC50 is < 3.70. With `O=c1[nH]c2nc3ccccc3c(=O)n2/c1=C/c1cccs1`, the pEC50 was < 3.70 and the pIC50 is 3.96. Turning to `CCCCCOCC(O)CO` (stereo not drawn), the result was inactive. Regarding `O=c1c(-c2cccc(O)c2)coc2cc(O)c(O)cc12`, the pEC50 was < 3.70 and the negative logarithm of the IC50 (pIC50) is 4.98. `CCCCCCCCCC=C(c1cc(Br)c(OC)c(C(=O)OC)c1)c1cc(Br)c(OC)c(C(=O)OC)c1`: the pEC50 was < 4.53 and the pIC50 was < 4.53. Consider `CCOC(=O)c1c(-c2cccc3ccccc23)c(C#N)c(=S)n(C2OC(COC(C)=O)C(OC(C)=O)C(OC(C)=O)C2OC(C)=O)c1C` (stereo not drawn), for which the pEC50 was < 3.70 and the pIC50 was 5.11. The matching figures for `Cc1ccccc1C=NC12CC3CC(CC(C3)C1)C2`: < 4.27 and < 4.27.

Turning to `[O-]/C(=C\[P+](c1ccccc1)(c1ccccc1)c1ccccc1)c1ccccc1`, the pEC50 is < 3.70 and the pIC50 was 4.49. The matching figures for `O=P1(CCc2ccc(Cl)cc2)CC(Br)C(Br)C1` (stereo not drawn): < 3.20 and 4.42. The corresponding values for `O=C1NC(=O)C(C(=O)C(=O)Nc2ccc(Cl)cc2Cl)C(=O)N1` are < 3.56 and < 3.56. For the compound `N#CCc1c(C2(c3ccncc3)OCCO2)[nH]c2ccccc12`, the pEC50 was < 3.93 and the pIC50 is 3.96. For `Clc1ccc(OCc2nnc(CCCCCCCCc3nnc(COc4ccc(Cl)cc4Cl)o3)o2)c(Cl)c1`, the pEC50 was < 3.70 and the negative-log IC50 (pIC50) is 3.89. Take `COc1ccc(/C=N/NS(=O)(=O)c2ccc(/C=C3\NC(=O)NC3=O)cc2)cc1`: the pEC50 was < 3.70 and the negative logarithm of the IC50 (pIC50) is < 3.70. Take `COc1cc(/C=C(\NC(=O)c2ccccc2)c2nc3ccc([N+](=O)[O-])cc3[nH]2)cc(OC)c1OC`: the result was inactive. As to `COC(=O)c1cc(C)ccc1C1CN=NC12Cc1ccc(C)cc1C2=O` (stereo not drawn), the pEC50 is 3.84 and the pIC50 is 3.74. On to `COc1cc2c(c(OC)c1OC)CCC1C(=O)NN=C21` (stereo not drawn), for which the pEC50 was < 3.04 and the pIC50 is 3.99. For `Cc1ccc(-c2c(C#N)c(S)n(NS(=O)(=O)c3ccc(C)cc3)c(=O)c2C#N)cc1`, the pEC50 is < 3.70 and the negative logarithm of the IC50 (pIC50) was 4.93. The corresponding values for `COC(=O)C1CC(=O)N(C)c2sc(C)c(C)c2C1=O` (stereo not drawn) are < 3.55 and 3.95.
